Results published in PMC4060151 (Chemistry & biology, 2014).

Tests used:
[1] = system: cell wall biosynthesis; details: ref Iwatsuki et al., 2006; cited from earlier work
[2] = system: ClpC1; details: cited from earlier work
[3] = system: stationary M. tuberculosis mc^26020; assay: Time-dependent killing, stationary cells; format: cell-based; details: 10 ×MIC; average of three biological replicates (Fig. 3B)

Lariatin A
mechanism of action [1]: inhibits cell wall biosynthesis

cyclomarin A
binding to ClpC1 [2]: binds to ClpC1
effect on proteolysis [2]: proposed to cause excessive proteolysis

CO[C@H]1/C=C/O[C@@]2(C)Oc3c(C)c(O)c4c(O)c(c(/C=N/N5CCN(C)CC5)c(O)c4c3C2=O)NC(=O)/C(C)=C\C=C\[C@H](C)[C@H](O)[C@@H](C)[C@@H](O)[C@@H](C)[C@H](OC(C)=O)[C@@H]1C [rifampicin]
killing of stationary phase cells [3]: characteristic biphasic killing (Fig. 3B) and a significant number of persister cells survive exposure
